Source: patent US4558052A, “10-Bromosandwicine, 10-bromoisosandwicine, pharmaceutical compositions thereof, and methods of treating heart rhythm disorders with them” (Kali-Chemie Pharma GmbH, priority 1979, dated 1985)
Entries after “also recorded” stand apart in the source; their conditions may differ. Counter-ions that a name gives are not always drawn.

Tests used:
[1] = words, known from literature; cited from earlier work
male NMRI-mice [2] = test: Minimum symptom dose at which any undesirable side effects are detected (Campbell and Richter); format: in vivo; conditions: dose causing changes in behaviour in 2 out of 3 mice
Protocol: B. Determination of minimum symptom dose at which any undesirable side effects are detected.
The minimum symptom dose is determined in male NMRI-mice (body weight range 18-22 g) according to the procedure of Campbell and Richter (see D. E. S. Campbell and W. Richter. Acta Pharmacol. Toxicol. 25 (1967) pp. 345-363). The minimum symptom dose is defined as that dose in μmol/kg which after i.p. administration causes changes in behaviour in 2 out of 3 mice. The minimum symptom dose is a measure for evaluation of undesirable side effects.

male NMRI-mice [3] = test: Acute toxicity LD50 i.p. and p.o. in mice; format: in vivo; conditions: probit analysis
Protocol: A. Determination of acute toxicity LD50 i.p. and p.o. in mice.
The acute toxicity of the compounds is determined in male NMRI-mice (body weight range 18-22 g) after i.p. or p.o. administration. The LD50 values are calculated by means of electronic data processing through a probit analysis.

[4] = tested on: cardiac extra-systoles induced by aconitine; test: Antiarrhythmic activity against cardiac extra-systoles induced by aconitine in rats (Raschack); format: in vivo; conditions: i.v., equitoxic dose about 5% of the i.p. LD50 in mice, aconitine 5 μg/kg/min i.v., vs control group
Protocol: C. Determination of antiarrhythmic activity against cardiac extra-systoles induced by aconitine in rats.
The protective effects of the compounds against extra-systoles (ES) caused by aconitine infusion in rats are determined according to the method of Raschack (Arzneimittelforsch. 25 (1975) 639-641).
Male Wistar rats having a body weight of 320-400 g are anesthetized by i.p. application of 1.25 g/kg urethane. The animals are placed on their backs and their electrocardiogram is registered every 30 seconds during the test. The animals are given an i.v. aconitine infusion at an infusion rate of 5 μg/kg/min of aconitine with an infusion volume of 0.1 ml/minute. 5 Minutes prior to starting the aconitine infusion the animals are given a solution of the test compound in an amount of 2 ml/kg bodyweight of isotonic NaCl solution by i.v. infusion over a period of about 2.5 minutes. A control group of animals is given only the vehicle solution. The infusion time until occurence of extra-systoles is determined.
Antiarrhythmically active test compounds lead to a retardation of the onset of aconitine-induced cardiac extra-systoles in the treated animals as compared with the group of control animals. The degree of prolongation of aconitine-infusion time and thus of increase of administered amount of aconitine up to which the animals are protected against the aconitine induced extra-systoles is an indication of the degree of antiarrhythmic activity of the test compounds.
Equitoxic doses of the test compounds are used namely doses which correspond to about 5% of the i.p. LD50 of the compound in mice. The % increase in aconitine infusion time (that is % increase of administered amount of aconitine) until onset of the extra-systoles in the treated animals as compared with the control group is determined.

[5] = Antiarrhythmic activity in a standard pharmacological in vivo test procedure; conditions: words

| SMILES | cardiac / antiarrhythmic activities [1] | Minimum symptom dose i.p. (male NMRI-mice [2]) [µmol/kg] | Toxicity LD50 i.p. (male NMRI-mice [3]) | Toxicity LD50 p.o. (male NMRI-mice [3]) [µmol/kg] | other results |
| --- | --- | --- | --- | --- | --- |
| CCC1C2CC3C4N(C)c5ccc(Br)cc5C45CC(C2C5O)N3C1O (stereo not drawn) [10-bromoajmaline] | cardiac activities | – | – | – | – |
| CCC1C2CC3C4N(C)c5ccc(Br)cc5C45CC(C2C5O)N3C1O (stereo not drawn) [10-bromoisosandwicine hydrogen tartrate, 10-bromoisosandwicinium hydrogentartrate] | – | 3 | 25 µmol/kg | 65 | Antiarrhythmic activity, ES-inhibiting effect: % prolongation of aconitine infusion time until onset of extra-systoles [4]: 25% |
| CCC1C2CC3C4N(C)c5ccc(Br)cc5C45CC(C2C5O)N3C1O (stereo not drawn) [10-bromosandwicine hydrogen tartrate, 10-bromosandwicine hydrogentartrate] | – | 92 | 307 µmol/kg | 2200 | Antiarrhythmic activity, ES-inhibiting effect: % prolongation of aconitine infusion time until onset of extra-systoles [4]: 25% |
| CC[C@H]1[C@@H]2C[C@H]3[C@@H]4N(C)c5ccccc5[C@]45C[C@@H]([C@H]2[C@H]5O)N3[C@@H]1O [Ajmaline] | cardiac activities including antiarrhythmic activities | – | – | – | – |
| CCC1C2CC3C4N(C)c5ccccc5C45CC(C2C5O)N3C1O (stereo not drawn) [Isosandwicine hydrogen fumarate] | – | 10 | ~ 56 μmol/kg | 471 | ES-inhibiting effect (result in words) [4]: not significant |
| CCC1C2CC3C4N(C)c5ccccc5C45CC(C2C5O)N3C1O (stereo not drawn) [Sandwicine hydrogen tartrate] | – | 58 | ~ 325 μmol/kg | 1530 | ES-inhibiting effect (result in words) [4]: not significant |
| CC[C@@H]1[C@H]2C[C@H]3[C@@H]4N(C)c5ccccc5[C@]45C[C@@H](C2[C@H]5O)N3[C@H]1O (stereo partly drawn) [isoajmaline] | cardiac activities including antiarrhythmic activities | – | – | – | – |
| CCC1C2CC3C4N(C)c5ccccc5C45CC(C2C5O)N3C1O (stereo not drawn) [isosandwicine] | – | – | – | – | antiarrhythmic activity [5]: no significant antiarrhythmic effects; also recorded: no significant antiarrhythmic activities |
| CCC1C2CC3C4N(C)c5ccccc5C45CC(C2C5O)N3C1O (stereo not drawn) [sandwicine, Sandwicine] | – | – | – | – | antiarrhythmic activity [5]: no significant antiarrhythmic effects; also recorded: no significant antiarrhythmic activities |
